{"source": "patent US9782424B2", "about": "“Synergistic combination comprising avermectins and a NSAID for tumor inhibition” (Ectin Research AB, priority 2011, dated 2017)", "assay_type_in_all_cases": "cell-based, human", "key": {"[1]": {"system": "colorectal cell line (HT29)", "test": "XTT-assay proliferation rate, colorectal cell line HT29", "procedure": "(§1) Commercially available human tumor cell lines were purchased from ATCC (ATCC/LGC-standards, Borás, Sweden). Cell lines from urinary bladder (UM-UC-3, #CRL-1749), colorectal carcinoma (Colo205, #CCL-222 and HT29, #HTB-38), prostate carcinoma (LNCaP, #CRL-1740) and breast carcinoma (ZR-75-1, #CRL-1500) were purchased and stored in liquid nitrogen. Cells were cultured in Roswell Park Memorial Institute media (RPMI-1640) or minimum essential medium with Earl's salts (EMEM) supplemented with 10% Foetal calf serum (FCS, Sigma) and cultured using a 37° C. cell culture incubator (Forma Scientific, NinoLab, Kungsbacka, Sweden) with 5% CO2 humidified atmosphere. Tumor cell lines were handled aseptically using a laminar airflow (LAF) bench (Holten 2448, Ninolab, Sweden) and stored in a liquid nitrogen tank and were initiated in culture as previously described (Falk P. Experimental models of the peritoneal environment: Effects of TGF-beta and Hyaluronan. Göteborg: University of Gothenburg; 2008). Briefly, ampoules of frozen cells were thawed by submerging into a 37° C. water bath for 45 s. Cells were resuspended in 10 ml of preheated RPMI-1640 with 10% FCS and centrifuged in 260 g for 10 min. With supernatant discarded, cell pellets were further resuspended with 5 ml complete medium into 25 cm^2 cell culture flasks (Cell+, Sarstedt, Nümbrecht, Germany). Tumor cells were cultured until sub-confluence and further sub-cultured with Trypsin (0.5%), EDTA (0.2%) solution (T4174, TE-10x, Sigma) in sterile sodium chloride. Culture media was changed two-three times a week. Culture flasks (Cell+, Sarstedt, Nümbrecht, Germany) and culture plates (Falcon/BD, Franklin Lakes, N.J., USA) were used for experimental set-ups. Cells were regularly monitored using an inverted microscope connected to a digital photo equipment (Axiovert 25 and Axiovision, Zeiss, Carl Zeiss AG, Germany) (FIG. 1). Described culture techniques and equipment have been used extensively in the laboratory\nThe proliferation rates of the different human tumor cell lines were studied using a method based on the conversion of a sodium salt (XTT-assay, Sigma) into a stable orange color that could be analyzed in a spectrophotometer. The color change is proportional to the mitochondrial dehydrogenase activity resulting in an effective technique for measuring cell toxicity (Roehm N W, Rodgers G H, Hatfield S M, Glasebrook A L. An improved colorimetric assay for cell proliferation and viability utilizing the tetrazolium salt XTT. J Immunol Methods 1991;142(2):257-65) or cell proliferation. The color change was measured using a 96-well plate reader with software to calculate the absorbance at 450 nm (V-max/Softmax Pro, Molecular Devices, USA). Cells were cultured until approx 50% confluence and then pre-incubated for 24 h with RPMI-1640 or EMEM containing 1% FCS only. RPMI 1640 and EMEM without phenol red was used during the experiments to reduce the red color background signal in the XTT-assay.\nPrior to the experimental start all cells were gently washed once with RPMI 1640 and EMEM with 1% FCS. Increasing concentrations of substance ivermectin was added with an 8-channel pipette (Titertek, Kem-En-Tec, Taastrup, Denmark) together with sterile pipette tips (Molecular Bioproducts, San Diego, Calif., USA). Cell cultures including active substances were incubated for 24 hours (and 96 hours). Untreated wells including culture medium only served as untreated controls. The XTT-assay substrate was added and after gentle agitation using a micro plate shaker, absorbencies at 450 and 650 nm were measured. Levels from medium were subtracted and compared with control wells, using culture medium only."}, "[2]": {"system": "urinary bladder cells (UM-UC-3)", "test": "Morphology of cultured tumor cells, UM-UC-3", "details": "ivermectin 100 μM, 24 hours (FIG. 6)", "procedure": "as §1, with “With supernatant discarded, cell pellets were further resuspended with 5 ml complete medium into 25 cm^2 cell culture flasks (Cell+, Sarstedt, Nümbrecht, Germany). Tumor cells were cultured until sub-confluence and further sub-cultured with Trypsin (0.5%), EDTA (0.2%) solution (T4174, TE-10x, Sigma) in sterile sodium chloride. Culture media was changed two-three times a week. Culture flasks (Cell+, Sarstedt, Nümbrecht, Germany) and culture plates (Falcon/BD, Franklin Lakes, N.J., USA) were used for experimental set-ups.” left out, “Described culture techniques and equipment have been used extensively in the laboratory” left out"}, "[3]": {"system": "colorectal cells (Colo205)", "test": "Morphology of cultured tumor cells, Colo205", "procedure": "Commercially available human tumor cell lines were purchased from ATCC (ATCC/LGC-standards, Borás, Sweden). […] Briefly, ampoules of frozen cells were thawed by submerging into a 37° C. water bath for 45 s. […] With supernatant discarded, cell pellets were further resuspended with 5 ml complete medium into 25 cm^2 cell culture flasks (Cell+, Sarstedt, Nümbrecht, Germany). Tumor cells were cultured until sub-confluence and further sub-cultured with Trypsin (0.5%), EDTA (0.2%) solution (T4174, TE-10x, Sigma) in sterile sodium chloride. Culture media was changed two-three times a week. Culture flasks (Cell+, Sarstedt, Nümbrecht, Germany) and culture plates (Falcon/BD, Franklin Lakes, N.J., USA) were used for experimental set-ups. Cells were regularly monitored using an inverted microscope connected to a digital photo equipment (Axiovert 25 and Axiovision, Zeiss, Carl Zeiss AG, Germany) (FIG. 1). Described culture techniques and equipment have been used extensively in the laboratory\nThe effect of Ivermectin, selamectin, abamectin alone, or in combination with ketoconazole, albendazole, ibuprofen, diclofenac and celecoxib on the morphology of cultured human tumor cells was studied. The effect of ivermectin in the presence of increasing concentration of ivermectin was also investigated. Cells were grown into sub-confluence and then sub-cultured into 12 and 24 well plates (Sarstedt, Falcon/BD) for morphology studies, or in 96 well plates (Sarstedt, Falcon/BD) for proliferation studies."}}, "data": [{"substance": "22,23-dihydroavermectin B1a+22,23-dihydroavermectin B1b [ivermectin]", "values": [{"measurement": "Proliferation rate in per cent compared to untreated medium control", "setting": "[1]; ivermectin 10e-9 mol/L", "result": "109 ± 14", "unit": "%"}, {"measurement": "Proliferation rate in per cent compared to untreated medium control", "setting": "[1]; ivermectin 10e-8 mol/L", "result": "112 ± 12", "unit": "%"}, {"measurement": "Proliferation rate in per cent compared to untreated medium control", "setting": "[1]; ivermectin 10e-7 mol/L", "result": "106 ± 9", "unit": "%"}, {"measurement": "Proliferation rate in per cent compared to untreated medium control", "setting": "[1]; ivermectin 10e-6 mol/L", "result": "91 ± 5", "unit": "%"}, {"measurement": "Effect on proliferation rate", "setting": "[1]; ivermectin 100 μM", "result": "decreased proliferation rate"}, {"measurement": "Proliferation rate in per cent compared to untreated medium control", "setting": "[1]; ivermectin 10e-5 mol/L", "result": "85±11", "unit": "%"}, {"measurement": "Proliferation rate in per cent compared to untreated medium control", "setting": "[1]; ivermectin 10e-4 mol/L", "result": "5±1", "unit": "%"}, {"measurement": "Effect on morphology", "setting": "[2]", "result": "affected"}, {"measurement": "Effect on morphology", "setting": "[3]; ivermectin", "result": "affected cell structure"}, {"measurement": "Effect on morphology", "setting": "[3]; ivermectin 10 μM", "result": "no effect"}, {"measurement": "Decreased growth of cells, substances tested alone", "setting": "[3]; ivermectin 10 μM alone, albendazole 20 and 40 μM alone (FIG. 11)", "result": "not seen"}, {"measurement": "Morphological effects over the concentration series", "setting": "[3]; ivermectin 10e-4 to 10e-10 mol/L (FIG. 2)", "result": "affected even at 10e-6 mol/L"}]}]}
